Patent US8729082B2, “Substituted imidazoquinoxalines” (Bayer Intellectual Property GmbH, priority 2009, dated 2014)
pIC50: −log10 of the molar value.

molecular target: T1, human kinase Mps-1 (Homo sapiens, UniProt P33981); assay: Mps-1 kinase assay (HTRF); type: biochemical; conditions: lowATP; mean; read-out: Mps1 lowATP mean IC50
T1 construct: N-terminally GST-tagged human full length recombinant Mps-1 kinase; purchased Invitrogen, Karslruhe, Germany PV4071
T1 sequence (P33981 1-857): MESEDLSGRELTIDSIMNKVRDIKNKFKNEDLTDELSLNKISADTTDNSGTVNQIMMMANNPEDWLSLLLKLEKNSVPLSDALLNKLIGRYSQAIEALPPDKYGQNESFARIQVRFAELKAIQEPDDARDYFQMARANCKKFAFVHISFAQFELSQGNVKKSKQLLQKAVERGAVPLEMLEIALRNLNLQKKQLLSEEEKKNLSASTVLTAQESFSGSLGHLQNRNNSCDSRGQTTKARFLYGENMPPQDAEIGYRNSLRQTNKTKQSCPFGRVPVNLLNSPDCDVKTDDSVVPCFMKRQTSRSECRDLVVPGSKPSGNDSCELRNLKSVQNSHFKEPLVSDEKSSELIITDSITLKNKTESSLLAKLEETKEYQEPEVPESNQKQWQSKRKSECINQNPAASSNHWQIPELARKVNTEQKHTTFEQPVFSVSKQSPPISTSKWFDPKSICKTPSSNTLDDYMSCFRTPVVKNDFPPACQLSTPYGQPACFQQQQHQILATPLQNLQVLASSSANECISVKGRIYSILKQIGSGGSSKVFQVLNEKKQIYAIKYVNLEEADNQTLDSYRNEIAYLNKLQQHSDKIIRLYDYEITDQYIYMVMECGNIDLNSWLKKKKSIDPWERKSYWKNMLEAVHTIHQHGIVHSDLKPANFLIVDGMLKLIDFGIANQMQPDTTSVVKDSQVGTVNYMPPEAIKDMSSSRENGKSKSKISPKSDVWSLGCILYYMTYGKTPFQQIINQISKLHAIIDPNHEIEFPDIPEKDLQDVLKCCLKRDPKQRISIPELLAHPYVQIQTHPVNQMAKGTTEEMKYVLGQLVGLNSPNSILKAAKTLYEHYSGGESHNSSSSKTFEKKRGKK
Procedure, shortened: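 HTRF readout: EDTA-stopped reactions incubated 1 h with europium anti-phospho(Ser/Thr) antibody and streptavidin-XLent, emission ratio 665/620 nm after 350 nm excitation. Kinase step: compound pre-bound 15 min to ~1 nM GST-Mps-1, then 60 min at 22 °C with ATP and biotin-peptide substrate; inhibition scaled between no-inhibitor (0%) and no-enzyme (100%) controls.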

Row | SMILES | pIC50
1 | CNC(=O)CNC(=O)c1ccc(-c2cnc3c(NCC(C)C)nc4ccccc4n23)cc1 [Example 3-19, N-[2-(methylamino)-2-oxoethyl]-4-{4-[(2-methylpropyl)amino]imidazo[1,2-a]quinoxalin-1-yl}benzamide] | 4.94
2 | COCCCNc1nc2cc(C)c(C)cc2n2c(-c3ccc(C(=O)NC4CC4)cc3)cnc12 [Example 2-155, N-cyclopropyl-4-{4-[(3-methoxypropyl)amino]-7,8-dimethylimidazo[1,2-a]quinoxalin-1-yl}benzamide] | 8.11
3 | CNC(=O)Nc1ccc(-c2cnc3c(NCCNC(C)=O)nc4cc(F)c(F)cc4n23)cc1 [Example 2-118, N-{2-[(7,8-difluoro-1-{4-[(methylcarbamoyl)amino]phenyl}imidazo[1,2-a]quinoxalin-4-yl)amino]ethyl}acetamide] | 4.90
4 | COc1cccc(-c2cnc3c(NCC(C)C)nc4ccccc4n23)c1F [Example 1-8, 1-(2-fluoro-3-methoxyphenyl)-N-(2-methylpropyl)imidazo[1,2-a]quinoxalin-4-amine] | 4.76
5 | CNC(=O)Nc1ccc(-c2cnc3c(NCCC(N)=O)nc4cc(C)c(C)cc4n23)cc1 [Example 2-174, N^3-(7,8-dimethyl-1-{4-[(methylcarbamoyl)amino]phenyl}imidazo[1,2-a]quinoxalin-4-yl)-beta-alaninamide] | 6.11
6 | COCCCNc1nc2cc(C)c(C)cc2n2c(-c3ccc(C(=O)NC4CC4)c(Cl)c3)cnc12 [Example 2-196, 2-chloro-N-cyclopropyl-4-{4-[(3-methoxypropyl)amino]-7,8-dimethylimidazo[1,2-a]quinoxalin-1-yl}benzamide] | 6.85
7 | N#Cc1ccc2c(c1)nc(NCC(O)CO)c1ncc(-c3ccc(C(=O)NC4CC4)c(Cl)c3)n12 (stereo not drawn) [Example 2-254, 2-chloro-4-{7-cyano-4-[(2,3-dihydroxypropyl)amino]imidazo[1,2-a]quinoxalin-1-yl}-N-cyclopropylbenzamide] | 5.26
8 | O=C(NC1CC1)c1ccc(-c2cnc3c(NCCO)nc4ccc(F)cc4n23)cc1 [Example 2-41, N-cyclopropyl-4-{8-fluoro-4-[(2-hydroxyethyl)amino]imidazo[1,2-a]quinoxalin-1-yl}benzamide] | 6.67
9 | CC(C)CNc1nc2ccccc2n2c(-c3ccc(C(=O)NC4(CO)CC4)cc3)cnc12 [Example 3-30, N-[1-(hydroxymethyl)cyclopropyl]-4-{4-[(2-methylpropyl)amino]imidazo[1,2-a]quinoxalin-1-yl}benzamide] | 6.56
10 | Cn1cc(CNc2nc3cc(F)c(F)cc3n3c(-c4ccc(C(=O)NC5CC5)cc4)cnc23)cn1 [Example 2-111, N-cyclopropyl-4-(7,8-difluoro-4-{[(1-methyl-1H-pyrazol-4-yl)methyl]amino}imidazo[1,2-a]quinoxalin-1-yl)benzamide] | 7.10
11 | O=C(NC1CC1)c1ccc(-c2cnc3c(NCC4CC4)nc4ccccc4n23)cc1 [Example 2-23, N-cyclopropyl-4-{4-[(cyclopropylmethyl)amino]imidazo[1,2-a]quinoxalin-1-yl}benzamide] | 7.62
12 | O=C(NC1CC1)c1ccc(-c2cnc3c(NCCCn4ccnc4)nc4cc(F)c(F)cc4n23)cc1Cl [Example 2-133, 2-chloro-N-cyclopropyl-4-(7,8-difluoro-4-{[3-(1H-imidazol-1-yl)propyl]amino}imidazo[1,2-a]quinoxalin-1-yl)benzamide] | 5.48
13 | O=C(NC1CC1)c1ccc(-c2cnc3c(NCCCN4CCOCC4)nc4ccc(F)cc4n23)cc1Cl [Example 2-76, 2-chloro-N-cyclopropyl-4-(8-fluoro-4-{[3-(morpholin-4-yl)propyl]amino}imidazo[1,2-a]quinoxalin-1-yl)benzamide] | 4.96
14 | N#Cc1ccc2c(c1)nc(NCCCN1CCOCC1)c1ncc(-c3ccc(C(=O)NC4CC4)c(Cl)c3)n12 [Example 2-236, 2-chloro-4-(7-cyano-4-{[3-(morpholin-4-yl)propyl]amino}imidazo[1,2-a]quinoxalin-1-yl)-N-cyclopropylbenzamide] | 4.82
15 | O=C(NC1CC1)c1ccc(-c2cnc3c(NCc4ccccn4)nc4ccc(F)cc4n23)cc1 [Example 2-53, N-cyclopropyl-4-{8-fluoro-4-[(pyridin-2-ylmethyl)amino]imidazo[1,2-a]quinoxalin-1-yl}benzamide] | 5.98
16 | O=C(NC1CC1)c1ccc(-c2cnc3c(NCCc4ccc(F)cc4)nc4ccccc4n23)cc1 [Example 2-35, N-cyclopropyl-4-(4-{[2-(4-fluorophenyl)ethyl]amino}imidazo[1,2-a]quinoxalin-1-yl)benzamide] | 6.27
17 | CNC(=O)Nc1ccc(-c2cnc3c(NCCOC)nc4cc(C)c(C)cc4n23)cc1 [Example 2-162, 1-(4-{4-[(2-methoxyethyl)amino]-7,8-dimethylimidazo[1,2-a]quinoxalin-1-yl}phenyl)-3-methylurea] | 6.38
18 | CC(=O)NCc1cccc(-c2cnc3c(NCC(C)C)nc4ccccc4n23)c1 [Example 1-44, N-(3-{4-[(2-methylpropyl)amino]imidazo[1,2-a]quinoxalin-1-yl}benzyl)acetamide] | 4.94
19 | NC(=O)CCNc1nc2cc(F)c(F)cc2n2c(-c3ccc(C(=O)NC4CC4)cc3)cnc12 [Example 2-107, 4-{4-[(3-amino-3-oxopropyl)amino]-7,8-difluoroimidazo[1,2-a]quinoxalin-1-yl}-N-cyclopropylbenzamide] | 6.63

Other lines, results leading:

Row | pIC50 | SMILES
20 | 6.81 | O=C(NC1CC1)c1ccc(-c2cnc3c(NCCCO)nc4ccc(F)cc4n23)cc1 [Example 2-50, N-cyclopropyl-4-{8-fluoro-4-[(3-hydroxypropyl)amino]imidazo[1,2-a]quinoxalin-1-yl}benzamide]
21 | 6.35 | Cc1cc2nc(NCCCN3CCCC3=O)c3ncc(-c4ccc(C(=O)NC5CC5)c(Cl)c4)n3c2cc1C [Example 2-182, 2-chloro-N-cyclopropyl-4-(7,8-dimethyl-4-{[3-(2-oxopyrrolidin-1-yl)propyl]amino}imidazo[1,2-a]quinoxalin-1-yl)benzamide]
22 | 6.35 | O=C(NC1CC1)c1ccc(-c2cnc3c(NCCOc4ccccc4)nc4ccccc4n23)cc1 [Example 2-29, N-cyclopropyl-4-{4-[(2-phenoxyethyl)amino]imidazo[1,2-a]quinoxalin-1-yl}benzamide]
23 | 7.06 | CCNc1nc2ccc(F)cc2n2c(-c3ccc(C(=O)NC4CC4)cc3)cnc12 [Example 2-49, N-cyclopropyl-4-[4-(ethylamino)-8-fluoroimidazo[1,2-a]quinoxalin-1-yl]benzamide]
24 | 7.36 | Cc1cc2nc(NCC3CC3)c3ncc(-c4ccc(C(=O)NC5CC5)c(Cl)c4)n3c2cc1C [Example 2-190, 2-chloro-N-cyclopropyl-4-{4-[(cyclopropylmethyl)amino]-7,8-dimethylimidazo[1,2-a]quinoxalin-1-yl}benzamide]
25 | 6.33 | Cc1cc2nc(NCCCN3CCOCC3)c3ncc(-c4ccc(C(=O)NC5CC5)c(Cl)c4)n3c2cc1C [Example 2-180, 2-chloro-N-cyclopropyl-4-(7,8-dimethyl-4-{[3-(morpholin-4-yl)propyl]amino}imidazo[1,2-a]quinoxalin-1-yl)benzamide]
26 | 6.79 | CCCNc1nc2cc(C)c(C)cc2n2c(-c3ccc(NC(=O)NC)cc3)cnc12 [Example 2-159, 1-{4-[7,8-dimethyl-4-(propylamino)imidazo[1,2-a]quinoxalin-1-yl]phenyl}-3-methylurea]
27 | 6.06 | CC(C)CNc1nc2ccccc2n2c(-c3ccc(C(=O)Nc4cccc(C(N)=O)c4)cc3)cnc12 [Example 3-10, N-(3-carbamoylphenyl)-4-{4-[(2-methylpropyl)amino]imidazo[1,2-a]quinoxalin-1-yl}benzamide]
28 | 5.96 | CC(C)CNc1nc2ccccc2n2c(-c3ccc(C(=O)NC(C)CO)cc3)cnc12 (stereo not drawn) [Example 3-15, N-(1-hydroxypropan-2-yl)-4-{4-[(2-methylpropyl)amino]imidazo[1,2-a]quinoxalin-1-yl}benzamide]
29 | 5.55 | CNC(=O)Nc1ccc(-c2cnc3c(NCc4cccs4)nc4cc(C#N)ccc4n23)cc1 [Example 2-226, 1-(4-{7-cyano-4-[(thiophen-2-ylmethyl)amino]imidazo[1,2-a]quinoxalin-1-yl}phenyl)-3-methylurea]
30 | 6.27 | CC(=O)NCCNc1nc2cc(C)c(C)cc2n2c(-c3ccc(C(=O)NC4CC4)c(Cl)c3)cnc12 [Example 2-188, 4-(4-{[2-(acetylamino)ethyl]amino}-7,8-dimethylimidazo[1,2-a]quinoxalin-1-yl)-2-chloro-N-cyclopropylbenzamide]
